{"source": "patent US20210196738A1", "about": "“PHARMACEUTICAL COMPOSITION COMPRISING A COLLOIDAL DISPERSION AND A THERAPEUTIC AGENT AND METHODS AND USES THEREOF” (priority 2017, published 2021)", "key": {"[1]": {"test_system": "E. coli K-12 MG1655 (DA4201)", "assay": "AgSol-antibiotic synergy screening assay / MIC (Ag/Antibiotic screen)", "format": "cell-based, Escherichia coli", "conditions": "for MIC: Escherichia coli, MG1655, antibiotic alone", "procedure": "(§1) The MIC (Minimal Inhibitory Concentration) of a bacterium to a certain antimicrobial agent gives a quantitative estimate of the susceptibility. MIC is defined as the lowest concentration of antimicrobial agent required to inhibit growth of the organism. The principle is simple: Agar plates, tubes or microtitre trays with two-fold dilutions of antibiotics are inoculated with a standardized inoculum of the bacteria and incubated under standardized conditions following NCCLS guidelines. The next day, the MIC is recorded as the lowest concentration of antimicrobial agent with no visible growth. The MIC informs you about the degree of resistance and might give you important information about the resistance mechanism and the resistance genes involved. MIC-determination performed as agar dilution is regarded as the gold standard for susceptibility testing (Source: Global Salm-Surv—A global Salmonella surveillance and laboratory support project of the World Health Organization (4th Ed. April 2002, modified November 2010))\n(§2) The Minimum Inhibitory Concentration (MIC) of nanosilver (silver) was determined by two-fold dilution series in NaCl free Nutrient Broth (Sigma-Aldrich) in 15 ml screw cap tubes. The tubes were incubated in the dark over night at 37° C. without shaking. The MIC was determined as the lowest concentration of nanosilver (silver) at which no visible growth was observed.\n(§3) Antibiotic stock solutions were serially diluted in 2-fold steps in pre-warmed (37° C.) nutrient broth (NB) to prepare an antibiotic concentration gradient above and below the minimal inhibitory concentration (MIC) of antibiotic (Table 4). 50 μl of prepared dilutions were aliquoted into a 96-well round bottom plate (Nunc, Thermo Fisher) for the screening assay.\n(§4) Silver formulation (AgSol1000 (particles with 19 Ag per silica particle), AgSol300 (particles with 6 Ag per silica particle, AgNO3), aluminum coated silica beads (159/500 (silica particles with aluminium silicate coating)) and uncoated silica beads (15/500) were diluted in pre-warmed (37° C.) NB. Bindzil®15/500 is an unmodified silica sol, whereas Bindzil®159/500 is a aluminosilicate modified silica sol. Bindzil® is sold by Akzo Nobel AB.\n(§5) 40 μl of the prepared dilutions were added to the 96-well plate containing antibiotic gradient to reach the final silver concentration of ¼×MICAgSol (silver) (specific for the microorganism used) (Table 5).\n(§6) Overnight (16-20 h) cultures of 3 biological replicates of the following microorganisms E. coli K-12 MG1655 (DA4201), E. coli K-12 MG1655 rpsL K42N (DA49828), Pseudomonas aeruginosa PAO1 (DA6215) or Staphylococcus aureus USA300 JE2 (DA28823) were grown in NB till saturation (37° C. incubator with 190 rpm shaking). Cultures were diluted in NB to 10^7 CFU/ml and 10 μl of the dilution were added to the 96-well plate containing antibiotic gradient and silver formulations or the bead controls to reach the final concentration of 10^5 CFU/well in 100 μl total volume per well. 3 technical replicates (3 wells) of specific antibiotic concentration in combination with silver and microorganism were used. A control plate containing bacterial cells mixed with only antibiotic gradient was always included too.\n(§7) The prepared plate was incubated in 37° C. incubator without shaking in the dark for 16-20 h and the optical density (OD620) of each well was measured in plate reader Multiscan FC (Thermo Fisher)."}, "[2]": {"test_system": "E. coli K-12 MG1655 rpsL K42N (DA49828)", "assay": "AgSol-antibiotic synergy screening assay / MIC", "format": "cell-based", "conditions": "Escherichia coli", "procedure": "as §1, §2, §3, §4, §5, §6, §7"}, "[3]": {"test_system": "S. enterica Typhimurium LT2", "assay": "AgSol-antibiotic synergy screening assay", "format": "cell-based, Salmonella enterica", "conditions": "Salmonella; FIGS. 2A-2F", "procedure": "as §3, §4, §5, §7"}}, "note": "Read-outs that look alike come from different tables or passages of the source."}
{"smiles": "[H]/N=C(/N)N[C@H]1[C@H](O)[C@@H](O)[C@H](O[C@@H]2O[C@@H](C)[C@](O)(C=O)[C@H]2O[C@@H]2O[C@@H](CO)[C@H](O)[C@@H](O)[C@@H]2NC)[C@@H](N/C(N)=N\\[H])[C@@H]1O", "note": "[Streptomycin]", "values": [{"measurement": "MIC", "setting": "[1]; E. coli (DA4201), values used for antibiotic gradient, read-out: MIC", "result": 0.5, "unit": "µg/mL"}, {"measurement": "MIC", "setting": "[1]; nutrient broth, read-out: Antibiotic MIC, NB", "result": 0.5, "unit": "µg/mL"}, {"measurement": "fold increase in effect with AgSol vs antibiotic alone", "setting": "[1]; Table 6, E. coli", "result": 17, "unit": "fold"}, {"measurement": "Antibiotic MIC, NB + AgSol1000", "setting": "[1]; antibiotic in combination with AgSol1000 at ¼ × MIC silver, nutrient broth", "result": 0.03, "unit": "µg/mL"}, {"measurement": "Fold change (antibiotic MIC, NB vs NB + AgSol1000)", "setting": "[1]; dash = MIC unchanged", "result": 17, "unit": "x"}, {"measurement": "synergistic antibacterial effect of antibiotic in combination with AgSol", "setting": "[1]; vs antibiotic alone, E. coli MG 1655 K-12", "result": "markedly improved synergistic effect"}, {"measurement": "MIC", "setting": "[2]", "result": 2000, "unit": "µg/mL"}, {"measurement": "synergetic effect of antibiotic in combination with silver", "setting": "[3]", "result": "stronger synergetic effect"}]}
